In patent US5783556A, “Formulated insulin-containing composition” (Genentech, Inc., priority 1996, dated 1998):

Experiments:
[1] = Plasma total and free IGF-I levels in the IDDM clinical study; format: in vivo, human; settings: 2-4 hours after rhIGF-I injection
From the text: At the end of the lead-in period the patients were randomized to administer either rhIGF-I or placebo as an additional injection immediately before their morning insulin injections. Patients were allocated using an adaptive randomization procedure that stratified based on Tanner stage and the glycosylated hemoglobin value on day -28 of the lead-in period. A seven-day window period was allowed between day -1 of the lead-in period and day 1 of the treatment period. The subjects were admitted to the hospital the afternoon preceding day 1 of treatment and received their usual insulin dose and diet. On day 1, an IV cannula was inserted into the distal forearm or antecubital fossa. A single dose of rhIGF-I (80 μg/kg) or placebo was administered SC, followed by a SC insulin injection and breakfast. The dosing of IGF-I in the morning was for safety reasons. On day 1, the a.m. regular insulin dose was reduced by 1/3in both groups as a precaution against the development of hypoglycemia. Blood samples were obtained for future assay every 15 minutes for the next 3 hours. […]
Plasma levels of GH, IGF-I, free IGF-I, IGF-II, IGFBP-1, IGFBP-2, and IGFBP-3 were measured. […] Total plasma IGF-I concentrations were determined by radioimmunoassay (RIA) following acid-ethanol extraction as described by Lieberman et al., supra. […]

[2] = tested on: STZ diabetic rats; assay: Plasma glucose after SC injection in STZ diabetic rats (Studies 1-3); format: in vivo, rat
Experimental: Forty 7-8 week-old male SD rats were received from Charles River Laboratories and one day later injected with STZ 75 mg/kg IP. Five days later rats were bled via a tail vein, serum was obtained, and glucose concentration measured. All animals with blood glucose <200 mg/dL were not considered diabetic and were removed from the study. […] The right jugular vein was then isolated through a small SC incision and cannulated using a 0.02 inch×0.037 inch beveled silicon rubber-tipped cannula. Cannulas were flushed and checked for patency using heparin (10 U/mL) before closing wounds using 4-0 silk suture thread. Cannulas were "heparin locked" using ~50 μl heparin (100 U/mL) just before the animals were placed on a heated pad for recovery. Rats were placed in their vivarium cage when ambulatory.
The cannulas were flushed daily with fresh heparin/saline to maintain patency. Two days after cannulation, Study 1 (see below) was performed and two days later, Study 2. […]
Plasma glucose concentrations were measured using a Chem 1A serum chemistry analyzer (Miles Laboratories, Tarrytown, N.Y.). Insulin in plasma was measured by rat-specific radioimmunoassay (RIA) (Linco Research Inc., St. Charles, Mo.). Plasma IGF-I was measured by RIA after acid-ethanol extraction of the samples. […]

[3] = tested on: patients with IDDM; assay: Safety assessments in the IDDM clinical study (hypoglycemia, laboratory profiles, body weight); format: in vivo, human
Experimental: The primary safety laboratory evaluations were serum biochemical and thyroid profiles, CBC, urinalysis, 24-hour urinary albumin excretion rate and creatinine clearance. Hypoglycemia was defined by a BG level equal to or lower than 50 mg/dL with or without symptomatology. This definition of hypoglycemia was used for purposes of statistical analysis.
Patients with at least two weeks of post randomization data were included in the analysis. […] The data are summarized by mean±SE for each group. Comparisons between the two groups were performed using the Wilcoxon rank sum test for continuous variables and Fisher's exact test for discrete data. All tests were two-tailed and a p-value less than or equal to 0.05 was considered statistically significant.

[4] = Acidic pH reversed-phase HPLC of centrifuged and filtered insulin, IGF-I and insulin/IGF-I mixtures; format: physicochemical
Experimental: Human insulin was gently inverted several times to mix the suspension. Approximately 1 mL of sample was withdrawn into an insulin syringe. The insulin was discharged into a centrifuge tube, then centrifuged at 3000 r.p.m. for 10 minutes. The centrifuge step was designed to remove human insulin suspension from solution. After centrifugation, the insulin sample was filtered through a 0.22 μm filter to further remove human insulin suspension. After filtration the solution was analyzed by using the acidic pH reversed-phase HPLC method described below: […]
solvent A: 0.1% trifluoroacetic acid solvent B: 0.1% trifluoroacetic acid in acetonitrile […]
column temperature: 50° C. […]
injection volume: 25 μg/injection
This solution was analyzed by the above HPLC method with no sample preparation step.
IGF-I was diluted to 1 mg/mL using IGF-I placebo. The diluted sample was analyzed by the above HPLC method.
Human insulin was mixed with IGF-I in an insulin syringe using the mixing method described above. Immediately after mixing, the mixture was injected into a centrifuge tube, then gently vortexed for 1-2 seconds. After vortexing, the mixture was centrifuged at 3000 r.p.m. for 10 minutes, then filtered through a 0.22 μm filter to remove human insulin suspension. The filtered sample was then analyzed by the acidic pH reversed-phase HPLC method described above.

[5] = Mixing one volume of human insulin with an equal volume of IGF-I: pH, color and appearance; format: physicochemical
From the text: One volume of human insulin was mixed with an equal volume of IGF-I using the following procedure:
1) Draw air into syringe equal to the amount of human insulin for mixing. Insert the needle into the human insulin bottle and inject air. Withdraw the needle.
3) Turn the bottle and syringe upside down.
4) Make sure the tip of the needle is in the IGF-I, withdraw the correct dose of IGF-I into the syringe.
5) Before removing the needle from the bottle, check the syringe for air bubbles which reduce the amount of IGF-I in it. If bubbles are present, hold the syringe straight up and tap its sides until the bubbles float to the top. Push them out with the plunger and withdraw the correct dose.
6) Remove the needle from the bottle of IGF-I and insert it into the bottle of human insulin. Turn the bottle and syringe upside down. Hold the bottle and syringe firmly in one hand and shake gently (no shaking for regular human insulin). Make sure the tip of the needle is in the insulin, withdraw the dose of human insulin.

[6] = tested on: patients with IDDM; assay: Four-week randomized placebo-controlled double-blind study of rhIGF-I plus insulin in IDDM: glycemic control and insulin usage; format: in vivo, human
From the text: Forty-three patients (22 males and 21 females) with IDDM, ages 8-17 years, were recruited at three university-based diabetes clinics. The eligibility criteria were as follows:
The study design included a 4-week lead-in period, a 4-week treatment period, and a 2-week wash-out period (FIG. 13). Throughout the study the patients continued to receive two injections of regular and NPH insulin daily. At study entry the patients were provided with detailed instructions on home blood glucose (BG) monitoring technique. They were instructed to test BG before breakfast, lunch, dinner, and the evening snack as well as any times of symptomatic hypoglycemia. The glucose values were automatically stored in the meter (One Touch II--Lifescan Inc., Milpitas, Calif.) and electronically transferred to a personal computer at the study site during each clinic visit. During the lead-in period the patients were counseled weekly on general diabetes care and dietary management (day -28 and -14 at the clinic, day -21 and -7 over the phone). During this period the patients were provided with specific goals of glycemic control and were instructed to call the study sites as often as needed for assistance with insulin adjustment.
At the end of the lead-in period the patients were randomized to administer either rhIGF-I or placebo as an additional injection immediately before their morning insulin injections. Patients were allocated using an adaptive randomization procedure that stratified based on Tanner stage and the glycosylated hemoglobin value on day -28 of the lead-in period. A seven-day window period was allowed between day -1 of the lead-in period and day 1 of the treatment period. The subjects were admitted to the hospital the afternoon preceding day 1 of treatment and received their usual insulin dose and diet. On day 1, an IV cannula was inserted into the distal forearm or antecubital fossa. A single dose of rhIGF-I (80 μg/kg) or placebo was administered SC, followed by a SC insulin injection and breakfast. The dosing of IGF-I in the morning was for safety reasons. On day 1, the a.m. regular insulin dose was reduced by 1/3in both groups as a precaution against the development of hypoglycemia. Blood samples were obtained for future assay every 15 minutes for the next 3 hours. The patients were encouraged to be active and exercise after the initial 3-hour sampling period. Discharge from the hospital occurred on day 3 or 4 of treatment. The patients were then contacted by phone on day 5 and seen as outpatients on days 7, 14, 21, and 28 of treatment and 14 days after the cessation of dosing. The patients were instructed on dietary and diabetes management at each follow-up appointment.
For the entire four-week treatment period, the rhIGF-I and placebo doses remained constant (80 μg/kg SC q a.m.). However, the insulin doses were adjusted in an attempt to achieve the following BG targets: fasting blood glucose (FBG) 80-120 mg/dl (4.4-6.7 mmol/L) for age greater than 12 years and 80-140 mg/dL (4.4-7.8 mmol/L) for age lower than 12 years; 80-180 mg/dL (4.4-10.0 mmol/L) at any other time. A physical exam was performed on day -28 of the lead-in period, on days 1, 7, 21 and 28 of the treatment period, and on day 14 of the wash-out period. The treatment period was followed by a two-week wash-out period, during which the patients remained on insulin therapy only and dose adjustments continued as necessary to meet the glycemic goals.
The primary indices of glycemic control were: 1) HbA1 was measured at day -28 of the lead-in, as well as at days 1 and 28 of the treatment; 2) the average of the four daily home glucose monitoring values over the last ten days of the lead-in period was compared to the last ten days of treatment. The glycosylated hemoglobin was assayed by affinity chromatography (SmithKline Beecham Clinical Laboratories). The reference range was 4.4-6.1%.
Patients with at least two weeks of post randomization data were included in the analysis. […]

[7] = last 10 days of treatment period, Mean ± SEM

**Q.** Which “free IGF-I level compared with corresponding Tanner stage placebo group” value [1] does the source give for “IGF-I: rhIGF-I (Genentech): 10 mg/mL IGF-I, 5.84 mg/mL NaCl, 9.0 mg/mL benzyl alcohol, 2.0 mg/mL polysorbate 20, 50 mM sodium acetate, pH 5.4” here?
**A.** Its value is “higher”.

**Q.** What about the “blood glucose levels after 6 hours” value ([2]; Study 1, 6 hours after SC injection) of the same substance?
**A.** The value was “returned to basal values”.

**Q.** And the blood glucose levels ([2]; Study 1, twenty minutes post-injection, SC, rhIGF-I 500 μg and/or NPH insulin 5U)?
**A.** Its blood glucose levels is 218.3±38.1 mg %.

**Q.** What about the body weight ([3]; day 28 of treatment) of the same substance?
**A.** The body weight was 55 ± 17 kg.

**Q.** And the “biochemical, lipid, and thyroid profiles” value ([3]; throughout the duration of the study)?
**A.** The value was “remained within normal limits”.

**Q.** What about the “median amount of hypoglycemic episodes” value ([3]; treatment period, BG equal to or lower than 50 mg/dL) of the same substance?
**A.** The value was 6.

**Q.** What about the “IGF-I intact and unoxidized” value ([4]; IGF-I formulation alone, FIG. 1C) of the same substance?
**A.** Its value is “approximately 99%”.

**Q.** What about the IGF-I precipitated ([4]; immediately after mixing with HUMULIN R) of the same substance?
**A.** The IGF-I precipitated was roughly 25%.

**Q.** And the “Color and Appearance Before Mixing” value [5]?
**A.** Its value is “colorless, clear”.

**Q.** And the “pH Before Mixing” value [5]?
**A.** Its value is 5.4.

**Q.** What about the “average number of NPH units used per kg body weight” value ([6]; during treatment) of the same substance?
**A.** Its value is 0.65±0.14 units used per kg body weight.

**Q.** And the “Mean Plasma Glucose Concentrations, Pre-bedtime, Treatment” value [6, 7]?
**A.** The value was 171 ± 51 mg/dL.

**Q.** And the “Mean Plasma Glucose Concentrations, Pre-breakfast, Treatment” value [6, 7]?
**A.** Its value is 176 ± 39 mg/dL.

**Q.** And the “Mean Plasma Glucose Concentrations, Pre-dinner, Treatment” value [6, 7]?
**A.** The value was 199 ± 47 mg/dL.

**Q.** What about the “Mean Plasma Glucose Concentrations, Pre-lunch, Treatment” value [6, 7] of the same substance?
**A.** Its value is 142 ± 56 mg/dL.

**Q.** And the “mean reduction of HbA1 during the treatment period” value ([6]; rhIGF-I 80 μg/kg SC q a.m. plus regular and NPH insulin, 4 weeks)?
**A.** The value was 1.8±1.25%.

**Q.** And the “average amount of regular insulin used” value ([6]; treatment phase)?
**A.** The value was 0.20±0.10 insulin units used daily per kg of body weight.
